PMC4998035 (International Journal of Nanomedicine, 2016)
Values after ≈ are worked out from the molar mass of the structure shown. Where two headings read alike, the source gives them in different places.

Experiments:
[1] = In vitro percutaneous permeation, vertical Franz diffusion cell; assay type: in vitro ADME, Sprague Dawley rats; conditions: 20% NIC solution without FK506; data not shown
[2] = Solubility of FK506 in NIC solution; assay type: physicochemical
[3] = in vitro; cited from earlier work
[4] = in vivo; cited from earlier work

| Solubility in 30% (w/v) NIC solution relative to that in water ([2]; 30% (w/v) NIC vs water) [fold] | solubility at 3 days ([2]; water (0% (w/v) NIC), 37 °C, water, thermodynamic from solid) [µg/mL] | SMILES | Permeation of NIC into skin [1] | Immunosuppressant activity relative to cyclosporine A [3] | Immunosuppressant activity relative to cyclosporine A [4] |
| --- | --- | --- | --- | --- | --- |
| – | – | NC(=O)c1cccnc1 [NIC, nicotinamide] | easily permeate into skin | – | – |
| 532 | 0.69 ± 0.24 (≈ 0.858 µM) | C=CC[C@@H]1/C=C(\C)C[C@H](C)C[C@H](OC)[C@H]2O[C@@](O)(C(=O)C(=O)N3CCCC[C@H]3C(=O)O[C@H](/C(C)=C/[C@@H]3CC[C@@H](O)[C@H](OC)C3)[C@H](C)[C@@H](O)CC1=O)[C@H](C)C[C@@H]2OC [FK506, Tacrolimus] | – | 30–100 fold | 10–20 fold |
